# Data from US7326700B2, “Cyclohexenyl phenyl carboxamides tocolytic oxytocin receptor antagonists” (Wyeth, priority 2001, dated 2008).
# Counter-ions that a name gives are not always drawn.
# Biological target: T1, human vasopressin V2 receptor subtype (Homo sapiens, UniProt P30518)
# T1 construct: host or cells: CHO cells, stably transfected (pZeoSV vector)
# Assay: Vasopressin binding in CHO cell membranes expressing human vasopressin V2 subtype receptors ([3H]arginine vasopressin radioligand binding)
# Conditions: 100 nM
# Description: Chinese Hamster Ovary (CHO) cells stably transfected with the human V2 subtype receptors were obtained from M. Thibonnier, Case Western Reserve University School of Medicine, Cleveland, Ohio.
# CHO cells transfected with the human vasopressin V2 subtype receptors obtained from M. Thibonnier (pZeoSV vector) are allowed to grow to confluency (approx. >90%) in T-150 flasks under sterile conditions, in a cell culture medium consisting of F-12 Nutrient Mixture (HAM) with L-glutamine (Gibco Cat. #11765-054) containing 15 mM HEPES (Gibco Cat. #15630-080), 1% antibiotic/antimycotic (add 5 mL 100×, Gibco Cat. #15240-062 per 500 mL F-12), 250 μg/mL Zeocin (add 1.25 mL of 100 mg/mL Invitrogen R-250-01 per 500 mL F-12) and 10% Fetal Bovine Serum (Qualified, heat inactivated, Gibco Cat. #16140-063). The medium is removed by aspiration and the cells washed with 10 mL of Hank's Balanced Salt solution (Gibco Cat. #14175-095). The salt solution is removed by aspiration and the cells trypsinized with 5 mL of trypsin-EDTA (0.05% trypsin, 0.53 mM EDTA-4Na, Gibco Cat. #25300-070) for 1 min. The trypsin is removed by aspiration and the cells dislodged by tapping. Cell Culture medium (e.g. 30 mL for 1:30 split) is immediately added and mixed well to inactivate trypsin. 1 mL of detached cells is added to new culture flasks containing fresh Cell Culture medium (e.g. into 25 mL per T-150 flask), and mixed gently. The cells are incubated at 37° C. in 5% CO2. The medium is changed at 3 to 4 day interval (or as appropriate). The cells grow to confluency (approx. >75%-95%) within 7-8 days. All steps are done under sterile conditions.
# The cells are washed twice gently with Hank's Balanced Salt solution (e.g. use 10 mL per T-150 flask). The excess solution is removed and the cells bathed for 15-30 min. in an enzyme-free Cell Dissociation Buffer (e.g. use 8 mL Hank's Based, Gibco Cat. #13150-016 per T-150 flask) until cells are loosened. The contents are transferred to centrifuge tubes (50 mL) kept in an ice bath. All subsequent steps are done at 4° C. The tubes are centrifuged at 300×g for 15 min (1380 rpm on SORVAL, Model RT6000D, using the rotor for 50 mL tubes). The supernatant is discarded and the cells suspended in homogeneizing buffer(10 mM Tris-HCl containing 0.25 M sucrose and 1 mM EDTA, pH 7.4) ensuring that the volume of the buffer is about ten times the volume of the cell pellet. The cells are pooled into a centrifuge tube (50 mL) and homogenized with Polytron at setting 6 for 10 sec. The homogenate is transferred into a Potter-Elvjehm homogeneizer and homogenized with 3 strokes. The homogenate is centrifuged at 1500×g for 60 min at 4° C. (3100 rpm using SORVAL, model RT6000D, using the rotor for 50 mL tubes). The pellet is discarded. The supernatant is centrifuged at 100,000×g for 60 min. at 4° C. (Beckman L8-80M ultracentrifuge; spin at 37,500 rpm with rotor type 70 Ti for 50 mL tubes; 38,000 rpm with type 80 Ti for 15 mL tubes; or 35,800 rpm with rotor type 45Ti). The supernantant is discarded and the pellet suspended in 3 to 4 mL of Tris buffer (50 mM TRIS-HCl, pH 7.4). The protein content is estimated by the Bradford or Lowry method. The volume of the membrane suspension is adjusted with the membrane buffer (50 mM Tris-HCl containing 0.1% BSA and 0.1 mM PMSF) to give 3.0 mg/mL (or as appropriate) of protein. The membranes are aliquoted and stored at −70° C.
# In wells of a 96-well format microtiter plate, is added 90, 110 or 130 μL (to make up a final volume of 200 μL) of assay buffer containing 50 mM of Tris-HCl (pH 7.4), […], 1 mg % aprotinin, 1 mg % leupeptin, 2 mg % 1,10-phenanthroline, 10 mg % trypsin inhibitor, and 0.1 mM PMSF. The inhibitors are added on the day of the experiment. The components are mixed at room temperature, and then kept in ice bath following adjustment of the pH to 7.4. […]
# T1 sequence (P30518 whole entry): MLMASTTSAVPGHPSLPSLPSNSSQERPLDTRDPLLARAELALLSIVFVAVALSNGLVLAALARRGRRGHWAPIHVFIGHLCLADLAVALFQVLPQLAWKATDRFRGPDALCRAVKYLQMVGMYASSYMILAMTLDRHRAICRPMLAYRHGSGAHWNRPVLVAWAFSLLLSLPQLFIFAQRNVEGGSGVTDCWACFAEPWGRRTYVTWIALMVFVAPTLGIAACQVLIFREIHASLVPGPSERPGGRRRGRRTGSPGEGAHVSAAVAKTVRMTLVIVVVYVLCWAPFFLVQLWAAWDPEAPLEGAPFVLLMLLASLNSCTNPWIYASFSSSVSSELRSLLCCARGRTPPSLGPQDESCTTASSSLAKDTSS
inhibition at 0.1 µM [%],V2 % inhibition @ 100 nM [%],Compound
4,,"COc1cc(C2=CCCCC2)c(Cl)cc1C(=O)N1Cc2ccc(C(=O)N(C)CCCN(C)C)n2Cc2ccccc21 [Example 2, 10-(5-Chloro-4-cyclohex-1-en-1-yl-2-methoxybenzoyl)-N-[3-(dimethylamino)propyl]-N-methyl-10,11-dihydro-5H-pyrrolo[2,1-c][1,4]benzodiazepine-3-carboxamide]"
11,,"Cc1cc(C(=O)N2Cc3ccc(C(=O)N4CCN(C)CC4)n3Cc3ccccc32)ccc1C1=CCCCC1 [Example 4, [10-(4-Cyclohex-1-en-1-yl-3-methyl-benzoyl)-10,11-dihydro-5H-pyrrolo[2,1-c][1,4]benzodiazepin-3-yl]-(4-methyl-piperazin-1-yl)-methanone]"
19,,"Cc1cc(C(=O)N2Cc3ccc(C(=O)N4CCN(CCCN(C)C)CC4)n3Cc3ccccc32)ccc1C1=CCCCC1 [Example 5, [10-(4-Cyclohex-1-en-1-yl-3-methyl-benzoyl)-10,11-dihydro-5H-pyrrolo[2,1-c][1,4]benzodiazepin-3-yl]-[4-(3-dimethylamino-propyl)-piperazin-1-yl]-methanone]"
17,,"Cc1cc(C(=O)N2Cc3ccc(C(=O)N4CCN(C)CC4)n3Cc3ccccc32)ccc1C1=CCCc2ccccc21 [Example 6, {10-[4-(3,4-Dihydro-naphthalen-1-yl)-3-methyl-benzoyl]-10,11-dihydro-5H-benzo[e]pyrrolo[1,2-a][1,4]diazepin-3-yl}-(4-methyl-piperazin-1-yl)-methanone]"
30,,"Cc1cc(C(=O)N2Cc3ccc(C(=O)N4CCN(CCCN(C)C)CC4)n3Cc3ccccc32)ccc1C1=CCCc2ccccc21 [Example 7, {10-[4-(3,4-Dihydro-naphthalen-1-yl)-3-methyl-benzoyl]-10,11-dihydro-5H-pyrrolo[2,1-c][1,4]benzodiazepin-3-yl}-[4-(3-dimethylamino-propyl)-piperazin-1-yl]-methanone]"
-8,,"CC1=C(c2ccc(C(=O)N3Cc4ccc(C(=O)N5CCN(C)CC5)n4Cc4ccccc43)cc2C)CCCC1O (stereo not drawn) [Example 10, [4-(3-Hydroxy-2-methyl-cyclohex-1-en-1-yl)-3-methyl-phenyl]-[3-(4-methyl-piperazine-1carbonyl)-10,11-dihydro-5H-pyrrolo[2,1-c][1,4]benzodiazepin-10-yl]-methanone]"
14,,"CC1=C(c2ccc(C(=O)N3Cc4ccc(C(=O)N5CCN(C)CC5)n4Cc4ccccc43)cc2C)CCC[C@H]1O [Example 11, [4-((3R)-3-Hydroxy-2-methyl-cyclohex-1-en-1-yl)-3-methyl-phenyl]-[3-(4-methyl-piperazine-1-carbonyl)-10,11-dihydro-5H-pyrrolo [2,1-c][1,4]benzodiazepin-10-yl]-methanone]"
,3,"Cc1cc(C(=O)N2Cc3ccc(C(=O)N4CCCN(C)CC4)n3Cc3ccccc32)ccc1C1=CCCCC1 [Example 13, {10-[4-(1-Cyclohex-1-en-1-yl)-3-methylbenzoyl]-10,11-dihydro-5H-pyrrolo[2,1-c][1,4]benzodiazepin-3-yl}(4-methyl-1,4-diazepan-1-yl)methanone]"
,5,"Cc1cc(C(=O)N2Cc3ccc(C(=O)NCCCN(C)C)n3Cc3ccccc32)ccc1C1=CCCCC1 [Example 14, 10-[4-(1-Cyclohex-1-en-1-yl)-3-methylbenzoyl]-N-[3-(dimethylamino)propyl]-10,11-dihydro-5H-pyrrolo[2,1-c][1,4]benzodiazepine-3-carboxamide]"
,5,"Cc1cc(C(=O)N2Cc3ccc(C(=O)N(C)CCN(C)C)n3Cc3ccccc32)ccc1C1=CCCCC1 [Example 15, 10-[4-(1-Cyclohex-1-en-1-yl)-3-methylbenzoyl]-N-[2-(dimethylamino)ethyl]-N-methyl-10,11-dihydro-5H-pyrrolo[2,1-c][1,4]benzodiazepine-3-carboxamide]"
,10,"Cc1cc(C(=O)N2Cc3ccc(C(=O)N(C)CCCN(C)C)n3Cc3ccccc32)ccc1C1=CCCCC1 [Example 16, 10-[4-(1-Cyclohex-1-en-1-yl)-3-methylbenzoyl]-N-[3-(dimethylamino)propyl]-N-methyl-10,11-dihydro-5H-pyrrolo[2,1-c][1 ,4]benzodiazepine-3-carboxamide]"
,2,"Cc1cc(C(=O)N2Cc3ccc(C(=O)N4CCC(N5CCCCC5)CC4)n3Cc3ccccc32)ccc1C1=CCCCC1 [Example 17, {10-[4-(1-Cyclohex-1-en-1-yl)-3-methylbenzoyl]-10,11-dihydro-5H-pyrrolo[2,1-c][1,4]benzodiazepin-3-yl}[4-(1-piperidinyl)-1-piperidinyl]methanone]"
,20,"Cc1cc(C(=O)N2Cc3ccc(C(=O)NCCCn4ccnc4)n3Cc3ccccc32)ccc1C1=CCCCC1 [Example 18, 10-[4-(1-Cyclohex-1-en-1-yl)-3-methylbenzoyl]-N-[3-(1H-imidazol-1-yl)propyl]10,11-dihydro-5H-pyrrolo[2,1-c][1,4]benzodiazepine-3-carboxamide]"
,18,"Cc1cc(C(=O)N2Cc3ccc(C(=O)N4CCC(N5CCCC5)CC4)n3Cc3ccccc32)ccc1C1=CCCCC1 [Example 19, {10-[4-(1-Cyclohex-1-en-1-yl)-3-methylbenzoyl]-10,11-dihydro-5H-pyrrolo[2,1c][1,4]benzodiazepin-3-yl}[4-(1-pyrrolidinyl)-1-piperidinyl]methanone]"
,14,"Cc1cc(C(=O)N2Cc3ccc(C(=O)NCCN4CCCCC4)n3Cc3ccccc32)ccc1C1=CCCCC1 [Example 20, 10-[4-(1-Cyclohex-1-en-1-yl)-3-methylbenzoyl]-N-[2-(1-piperidinyl)ethyl]-10,11-dihydro-5H-pyrrolo[2,1-c][1,4]benzodiazepine-3-carboxamide]"
,11,"Cc1cc(C(=O)N2Cc3ccc(C(=O)NCCC4CCCN4C)n3Cc3ccccc32)ccc1C1=CCCCC1 (stereo not drawn) [Example 21, 10-[4-(1-Cyclohex-1-en-1-yl)-3-methylbenzoyl]-N-[2-(1-methyl-2-pyrrolidinyl)ethyl]-10,11-dihydro-5H-pyrrolo[2,1-c][1,4]benzodiazepine-3-carboxamide]"

# Same assay, conditions: value in parentheses
row,IC50 [µM],Compound
1,> 3,"COc1cc(C2=CCCCC2)c(Cl)cc1C(=O)N1Cc2ccc(C(=O)N3CCC[C@H]3CN3CCCC3)n2Cc2ccccc21 [Example 1, 4-Chloro-5-cyclohex-1-en-1-yl-2-[(3-{[(2S)-2-(pyrrolidin-1-ylmethyl)pyrrolidin-1-yl]carbonyl}-5H-pyrrolo [2,1-c][1,4]benzodiazepin-10(11H)-yl)carbonyl]phenyl methyl ether]"
2,5.84,"COc1cc(C2=CCCCC2)c(Cl)cc1C(=O)N1Cc2ccc(C(=O)N(C)CCCN(C)C)n2Cc2ccccc21 [Example 3, 10-(5-Chloro-4-cyclohex-1-en-1-yl-2-methoxybenzoyl)-N-[3-(dimethylamino)propyl]-N-methyl-10,11-dihydro-5H-pyrrolo[2,1-c][1,4]benzodiazepine-3-carboxamide citric acid salt]"
